Source: US20070099841A1, “Prodrugs of T3 and T4 with enhanced bioavailability” (New River Pharmaceuticals Inc., priority 2005, published 2007)
Several values for one entry are separate records, joined by “and”; a condition that tells them apart may be missing. Equal entries are not always repeated. Where two headings read alike, the source gives them in different places. Values belong to the molecule of their own block, whether it stands above or below them.

Assays:
[1] = design: species or system Sprague-Dawley rats; settings: rat, in vivo
Experimental: Compounds were tested in Sprague-dawley rats (˜250 g). Defined doses were delivered as oral solutions in 0.5% sodium bicarbonate buffer with T3 sodium salt containing 12 mcgT3/kg or triiodothyronine composition containing the equivalent amount of T3. Rats were dosed immediately following 0 hour serum collection. Serum was collected from rats at 2, 4, 6, 9, 12 and 24 hours after capsule delivery. Total serum T3 concentrations were determined by ELISA using a commercially available kit (Total Triiodothyronine (total T3) ELISA KIT, product #1700, ALPHA DIAGNOSTIC, San Antonio, Tex.). Total serum T4 concentrations were determined by ELISA using a commercially available kit (Total Thyronine (Total T4) ELISA KIT, product #1100, ALPHA DIAGNOSTIC, San Antonio, Tex.).
The general procedures described above were employed for the experimental data described below. These procedures are subject to minor variations in timing and weight of rats, etc.
(§1) T3 sodium, G-T3, V-T3, I-T3, Y-T3, A2-T3, P2-T3, or F2-T3 were administered at equimolar doses to Sprague-Dawley rats (12 μg/kg T3; HED˜120 μg T3 sodium; n=6, per group) that were hypothyroid due to removal of the thyroid gland approximately one week prior to evaluation. Serum was collected at 0 (pre-dose), 1, 2, 4, 6, 8 and 12 hours post-dose and analyzed for total T3 and TSH by chemiluminescent immunoassay (Immulite CIA). […] At 1 hour post dose the mean level of Total T3 was 327.3, 429.5, 432.7, 403.3, 431, and 433.1 ng/ml for G-T3, V-T3, I-T3, Y-T3, P2-T3, and F2-T3 dosed animals respectively as compared to 577 ng/ml for T3 sodium dosed animals. Applicants note that some variation in these values may be present as with A2-T3 (FIGS. 15 and 16).

TSH = assay: Serum TSH after oral administration to hypothyroid rats (chemiluminescent immunoassay); assay type: in vivo, Sprague-Dawley rats; settings: for TSH levels in response to administration: oral 12 μg/kg T3; for Individual animal TSH: individual animals 1-6, oral 12 μg/kg T3
Experimental: as §1

[2] = 0 h (pre-dose), mean n=6, oral 12 μg/kg T3
[3] = 1 h, mean n=6, oral 12 μg/kg T3
[4] = 2 h, mean n=6, oral 12 μg/kg T3
[5] = 4 h, mean n=6, oral 12 μg/kg T3
[6] = 6 h, mean n=6, oral 12 μg/kg T3
[7] = 8 h, mean n=6, oral 12 μg/kg T3
[8] = 12 h, mean n=6, oral 12 μg/kg T3

Total T3 AUC, % (of T3) [1]: 92.3% | Total T3Δ dAUC, % (of T3) [1]: 97.9% | Variability of T3 absorption compared with T3 sodium [1]: decreased variability of T3 absorption | mean level of Total T3 at 1 hour post dose ([1]; po): 431 ng/mL
SMILES: O=C(O)[C@H](Cc1cc(I)c(Oc2ccc(O)c(I)c2)c(I)c1)NC(=O)[C@@H]1CCCN1C(=O)[C@@H]1CCCN1 [P2-T3]
TSH, mean (TSH; [2]): 2.988 μIU | TSH, mean (TSH; [3]): 2.438 μIU | TSH, mean (TSH; [4]): 1.363 μIU | TSH, mean (TSH; [5]): 0.346 μIU | TSH, mean (TSH; [6]): 0.21 μIU | TSH, mean (TSH; [7]): 0.189 μIU | TSH, mean (TSH; [8]): 0.735 μIU | TSH levels in response to administration (TSH): decreased rapidly

Tmax, % T3 ([1]; Sprague-Dawley): 100% | Tmax, Low − High ([1]; Sprague-Dawley): 1 − 6 | Total T3 AUC, % (of T3) ([1]; Sprague-Dawley): 100% | Total T3 AUClast, % T3 ([1]; Sprague-Dawley): 100% | Total T3 Cmax, % T3 ([1]; Sprague-Dawley): 100% | Total T3Δ AUClast, % T3 ([1]; Sprague-Dawley): 100% | Total T3Δ Cmax, % T3 ([1]; Sprague-Dawley): 100% | Total T3Δ dAUC, % (of T3) ([1]; Sprague-Dawley): 100% | Total T3 Tmax ([1]; Sprague-Dawley, po, 12 ug/kg): 3.2 h | Total T3 Tmax, mean ([1]; Sprague-Dawley, po, 12 ug/kg): 3.2 h | Total T3Δ Tmax, mean ([1]; Sprague-Dawley, po, 12 ug/kg): 3.2 h | mean level of Total T3 at 1 hour post dose ([1]; Sprague-Dawley, po, 1 h): 577 ng/mL | Total T3 AUClast, Low − High [1]: 4292 − 6421 ng · h/dL | Total T3 Cmax, Low − High [1]: 484 − 915 ng/dL | Total T3Δ AUClast, Low − High [1]: 3688 − 5526 ng · h/dL | Total T3Δ Cmax, Low − High [1]: 444 − 875 ng/dL | Total T3 AUC ([1]; po, 12 ug/kg): 5171
SMILES: N[C@@H](Cc1cc(I)c(Oc2ccc(O)c(I)c2)c(I)c1)C(=O)O [T3 sodium, 3,3′,5-triiodo-L-thyronine]
Individual animal TSH (TSH; 0 h (pre-dose)): 1.840 μIU and 2.296 μIU and 2.088 μIU and 2.480 μIU and 1.884 μIU and 2.572 μIU | TSH, mean (TSH; [2]): 2.193 μIU | Individual animal TSH (TSH; 1 h): 1.680 μIU and 1.796 μIU and 1.924 μIU and 2.580 μIU and 1.868 μIU and 2.344 μIU | TSH, mean (TSH; [3]): 2.032 μIU | Individual animal TSH (TSH; 2 h): 1.264 μIU and 1.284 μIU and 0.920 μIU and 1.116 μIU and 1.080 μIU and 1.180 μIU | TSH, mean (TSH; [4]): 1.141 μIU | Individual animal TSH (TSH; 4 h): 0.240 μIU and 0.252 μIU (2×) and 0.204 μIU and 0.200 μIU and 0.312 μIU | TSH, mean (TSH; [5]): 0.243 μIU | Individual animal TSH (TSH; 6 h): 0.116 μIU and 0.140 μIU and 0.136 μIU and 0.120 μIU (2×) and 0.160 μIU | TSH, mean (TSH; [6]): 0.132 μIU | Individual animal TSH (TSH; 8 h): 0.080 μIU and 0.156 μIU and 0.152 μIU and 0.132 μIU and 0.108 μIU and 0.188 μIU | TSH, mean (TSH; [7]): 0.136 μIU | Individual animal TSH (TSH; 12 h): 0.120 μIU and 0.260 μIU and 0.256 μIU and 0.416 μIU and 0.300 μIU | TSH, mean (TSH; [8]): 0.270 μIU | TSH, mean (TSH; 12 h, mean n=6, oral 12 μg/kg T3, listed as T3): 0.27 μIU | TSH levels in response to administration (TSH): decreased rapidly

Total T3 AUC, % (of T3) [1]: 94.9% | Total T3Δ dAUC, % (of T3) [1]: 98.6% | Variability of T3 absorption compared with T3 sodium [1]: decreased variability of T3 absorption | mean level of Total T3 at 1 hour post dose ([1]; po): 429.5 ng/mL
SMILES: CC(C)[C@H](N)C(=O)N[C@@H](Cc1cc(I)c(Oc2ccc(O)c(I)c2)c(I)c1)C(=O)O [V-T3]
TSH, mean (TSH; [2]): 2.309 μIU | TSH, mean (TSH; [3]): 2.212 μIU | TSH, mean (TSH; [4]): 1.123 μIU | TSH, mean (TSH; [5]): 0.282 μIU | TSH, mean (TSH; [6]): 0.174 μIU | TSH, mean (TSH; [7]): 0.175 μIU | TSH, mean (TSH; [8]): 0.54 μIU | TSH levels in response to administration (TSH): decreased rapidly

Total T3 AUC, % (of T3) [1]: 95.5% | Total T3Δ dAUC, % (of T3) [1]: 100.4% | Variability of T3 absorption compared with T3 sodium [1]: decreased variability of T3 absorption | mean level of Total T3 at 1 hour post dose ([1]; po): 403.3 ng/mL
SMILES: N[C@@H](Cc1ccc(O)cc1)C(=O)N[C@@H](Cc1cc(I)c(Oc2ccc(O)c(I)c2)c(I)c1)C(=O)O [Y-T3]
TSH, mean (TSH; [2]): 2.595 μIU | TSH, mean (TSH; [3]): 2.648 μIU | TSH, mean (TSH; [4]): 1.601 μIU | TSH, mean (TSH; [5]): 0.471 μIU | TSH, mean (TSH; [6]): 0.27 μIU | TSH, mean (TSH; [7]): 0.221 μIU | TSH, mean (TSH; [8]): 0.651 μIU | TSH levels in response to administration (TSH): decreased rapidly
